Measurements reported in patent publication US20230279004A1, “SOLID FORMS, SALTS, AND PROCESSES OF PREPARATION OF A CDK2 INHIBITOR” (Incyte Corporation, priority 2022, published 2023).
Marks after values point to notes of the source that are not given here. One block for each compound: values may come before it.

What was measured:
CDK2/Cyclin E1 = target: T1, CDK2/Cyclin E1 (Homo sapiens, UniProt P24941); assay: CDK2/Cyclin E1 HTRF enzyme activity assay; format: biochemical; settings: 1 mM ATP
T1 construct: full-length human CDK2; GST (N); purchased Carna 04-165; host or cells: baculovirus expression system
Protocol: CDK2/Cyclin E1 enzyme activity assays utilize full-length human CDK2 co-expressed as N-terminal GST-tagged protein with FLAG-Cyclin E1 in a baculovirus expression system (Carna Product Number 04-165). Assays were conducted in white 384-well polystyrene plates in a final reaction volume of 8 μL. CDK2/Cyclin E1 (0.25 nM) was incubated with the compounds of the Examples (40 nL serially diluted in DMSO) in the presence of ATP (50 μM or 1 mM) and 50 nM ULight™-labeled eIF4E-binding protein 1 (THR37/46) peptide (PerkinElmer) in assay buffer (containing 50 mM HEPES pH 7.5, 1 mM EGTA, 10 mM MgCl2, 2 mM DTT, 0.05 mg/mL BSA, and 0.01% Tween 20) for 60 minutes at room temperature. The reactions were stopped by the addition of EDTA and Europium-labeled anti-phospho-4E-BP1 antibody (PerkinElmer), for a final concentration of 15 mM and 1.5 nM, respectively. HTRF signals were read after 1 hour at room temperature on a PHERAstar FS plate reader (BMG Labtech). Data was analyzed with IDBS XLFit and GraphPad Prism 5.0 software using a three or four parameter dose response curve to determine IC50 for each compound.

[1] = Solid form change on heating (DSC); format: physicochemical
Protocol: The DSC was obtained from TA Instruments Differential Scanning Calorimetry, Discovery DSC2500 with autosampler. The DSC instrument conditions were as follows: 20-300° C. at 10° C./min; Tzero aluminum sample pan and lid; and nitrogen gas flow at 50 mL/min.
When comparing the DSC of Form I and Form II, it was observed that Form II solids contained two peaks (FIG. 23), with the latter peak onset (≈191.0° C.) and Tmax (193.4° C.) similar to the peak onset and Tmax of Form I (FIG. 2).
The residual solvent could not be removed by conventional drying methods. […] The stoichiometric ratio of the compound of Formula (I) and 1,4-dioxane could be 4:1. The DSC of the solid (FIG. 26) contained a peak onset latter peak onset (≈192.6° C.) and Tmax (194.3° C.), which are similar to the peak onset (191.3° C.) and Tmax (193.3° C.) of Form I (FIG. 2).

[2] = Phase equilibration (XRPD of equilibrated solid); format: physicochemical; settings: Form I stirred at 25° C. for 48 hours or 50° C. for 24 hours, all solvents tested (Table 9)
Protocol: Phase equilibration studies were conducted to identify a predominant crystal form for phase identification. Based on its solubility in various solvent systems (Table 8), the compound of Formula (I) Form I was equilibrated in a representative groups of solvents at 25±1° C. and 50±1° C. To the solvents, the compound of Formula (I) Form I was added until a cloudy solution was obtained, then approximately 20 mg of the compound of Formula (I) Form I was added to the cloudy solution. The mixture was stirred at 25±1° C. or 50±1° C. for 48 hours or 24 hours, respectively. The solid was filtered, dried in vacuum, and analyzed by XRPD.

[3] = Solubility measurement in various solvents (HPLC); format: physicochemical; settings: for Solubility (25° C.) / solubility at 48 h: 48 h; for Solubility (50° C.) / solubility at 24 h: 24 h; for solubility at 48 h: 25 °C; for solubility at 48 h / solubility at 24 h: organic solvent or mixture; for solubility at 24 h: 50 °C
Protocol: 5 mL of solvent (see Table 8) was added to the individual vials. The compound of Formula (I) Form I was added to the vials to get a cloudy solution at 25° C. Another approximately 20 mg of the compound of Formula (I) Form I was added to the cloudy solution. The mixture was agitated at 25±1° C. for 48 h, which was controlled by IKA® ETS-D5 temperature controller and IKA® RCT basic safety control. The supernatant was filtered using a syringe filter (0.22 μm). The saturated solution was pipetted into HPLC vials and diluted with MeOH or acetone.
The solubility measurement at 50° C. was performed according to the following procedure. 5 mL of solvent (see Table 8) was added to the individual vials. The compound of Formula (I) Form I was added to the vials to get a cloudy solution at 50° C. Another approximately 20-25 mg of the compound of Formula (I) Form I was added. The mixture was agitated at 50±1° C. for 24 h, which was controlled by IKA® ETS-D5 temperature controller and IKA® RCT basic safety control. The supernatant was filtered quickly using a warmed syringe filter (0.22 μm) at 50±1° C. The saturated solution was pipetted into HPLC vials and diluted with MeOH or acetone.

[4] = 1,4-dioxane, thermodynamic from solid, 1,4-Dioxane
[5] = 2-methoxyethanol, thermodynamic from solid
[6] = chloroform, thermodynamic from solid
[7] = dimethylformamide, thermodynamic from solid
[8] = iso-butyl acetate, thermodynamic from solid
[9] = methyl ethyl ketone, thermodynamic from solid
[10] = tetrahydrofuran (THF), thermodynamic from solid

IC50 (CDK2/Cyclin E1): ≤ 20 nM
Compound: CCOc1c(-c2cn[nH]c2)ccn2nc(N[C@H]3CCN(S(C)(=O)=O)C[C@H]3C)nc12 [Compound of Formula (I), 8-ethoxy-N-((3R,4S)-3-methyl-1-(methylsulfonyl)piperidin-4-yl)-7-(1H-pyrazol-4-yl)-[1,2,4]triazolo[1,5-a]pyridin-2-amine]

Solid form change during the heating process [1]: changed to Form I
Compound: CCOc1c(-c2cn[nH]c2)ccn2nc(N[C@H]3CCN(S(C)(=O)=O)C[C@H]3C)nc12 [Form II, 8-ethoxy-N-((3R,4S)-3-methyl-1-(methylsulfonyl)piperidin-4-yl)-7-(1H-pyrazol-4-yl)-[1,2,4]triazolo[1,5-a]pyridin-2-amine]

Crystalline form for phase equilibration [2]: crystalline Form I
Solubility (25° C.) ([3]; 1,4-Dioxane): >50* mg/mL
Solubility (50° C.) ([3]; 1,4-Dioxane, 50° C.): >50* mg/mL
solubility at 48 h [3, 4]: > 50 mg/mL
solubility at 24 h [3, 4]: > 50 mg/mL
Solubility (50° C.) ([3]; 2-Me THF/H2O/Heptane (1:1.5%:1), 50° C.): 0.6 mg/mL
solubility at 24 h ([3]; 2-Me THF/H2O/heptane (1:1.5%:1), thermodynamic from solid, 2-Me THF/H2O/Heptane (1:1.5%:1), 50° C.): < 1 mg/mL
Solubility (25° C.) ([3]; 2-Methoxyethanol): >50* mg/mL
Solubility (50° C.) ([3]; 2-Methoxyethanol, 50° C.): >50* mg/mL
Solubility (50° C.) ([3]; 2-Methyl THF, 50° C.): 18.7 mg/mL
solubility at 48 h [3, 5]: > 50 mg/mL
solubility at 24 h [3, 5]: > 50 mg/mL
solubility at 24 h ([3]; 2-methyl THF, thermodynamic from solid): 15 to 50 mg/mL
Solubility (50° C.) ([3]; 3% water in EtOH, 50° C.): 20.0 mg/mL
solubility at 24 h ([3]; 3% water in EtOH, thermodynamic from solid): 15 to 50 mg/mL
Solubility (25° C.) ([3]; Chloroform): >50* mg/mL
Solubility (50° C.) ([3]; Chloroform, 50° C.): >50* mg/mL
Solubility (25° C.) ([3]; DMSO): >50* mg/mL
solubility at 48 h ([3]; DMSO, thermodynamic from solid): > 50 mg/mL
Solubility (50° C.) ([3]; DMSO, 50° C.): >50* mg/mL
solubility at 24 h ([3]; DMSO, thermodynamic from solid): > 50 mg/mL
Solubility (25° C.) ([3]; Dichloromethane): 18.5 mg/mL
Solubility (25° C.) ([3]; Dimethylformamide): >50* mg/mL
Solubility (50° C.) ([3]; Dimethylformamide, 50° C.): >50* mg/mL
Solubility (50° C.) ([3]; EtOH, 50° C.): 15.7 mg/mL
solubility at 24 h ([3]; EtOH, thermodynamic from solid): 15 to 50 mg/mL
Solubility (50° C.) ([3]; Ethyl formate, 50° C.): 15.2 mg/mL
Solubility (25° C.) ([3]; MeOH): 18.7 mg/mL
solubility at 48 h ([3]; MeOH, thermodynamic from solid): 15 to 50 mg/mL
Solubility (25° C.) ([3]; Methyl ethyl ketone): 15.9 mg/mL
Solubility (50° C.) ([3]; Methyl ethyl ketone, 50° C.): 25.3 mg/mL
Solubility (25° C.) ([3]; Tetrahydrofuran (THF)): >50* mg/mL
Solubility (50° C.) ([3]; Tetrahydrofuran (THF), 50° C.): >50* mg/mL
Solubility (50° C.) ([3]; Toluene, 50° C.): 0.5 mg/mL
solubility at 48 h [3, 6]: > 50 mg/mL
solubility at 24 h [3, 6]: > 50 mg/mL
solubility at 48 h ([3]; dichloromethane, thermodynamic from solid): 15 to 50 mg/mL
solubility at 48 h [3, 7]: > 50 mg/mL
solubility at 24 h [3, 7]: > 50 mg/mL
solubility at 24 h ([3]; ethyl formate, thermodynamic from solid): 15 to 50 mg/mL
Solubility (25° C.) ([3]; iso-Butyl acetate): 1.1 mg/mL
Solubility (50° C.) ([3]; iso-Butyl acetate, 50° C.): 1.6 mg/mL
Solubility (25° C.) ([3]; iso-Propyl acetate): 1.8 mg/mL
solubility at 48 h [3, 8]: 1 to 15 mg/mL
solubility at 24 h [3, 8]: 1 to 15 mg/mL
solubility at 48 h ([3]; iso-propyl acetate, thermodynamic from solid): 1 to 15 mg/mL
solubility at 48 h [3, 9]: 15 to 50 mg/mL
solubility at 24 h [3, 9]: 15 to 50 mg/mL
solubility at 48 h [3, 10]: > 50 mg/mL
solubility at 24 h [3, 10]: > 50 mg/mL
solubility at 24 h ([3]; toluene, thermodynamic from solid): < 1 mg/mL
Compound: CCOc1c(-c2cn[nH]c2)ccn2nc(N[C@H]3CCN(S(C)(=O)=O)C[C@H]3C)nc12 [compound of Formula (I) Form I, 8-ethoxy-N-((3R,4S)-3-methyl-1-(methylsulfonyl)piperidin-4-yl)-7-(1H-pyrazol-4-yl)-[1,2,4]triazolo[1,5-a]pyridin-2-amine]
